Reference: patent US8501991B2, “P53 activating compounds” (University Court of the University of Dundee, priority 2006, dated 2013)
Where a name gives a salt, the structure may show the parent alone.

Experiments:
SirT1 = SirT1 (Homo sapiens (Human), UniProt Q96EB6); assay: In vitro deacetylation assay (Fluor de Lys SirT1 Fluorescent Activity Assay); format: biochemical; conditions: FdL substrate 7 μM, NAD+ 1 mM, 37° C., 1 hour; read-out: SIRT1 inhibition IC50
Description: Enzymatic SirT1 assays were carried out using purified components in the Fluor de Lys Fluorescent Assay Systems (Biomol kit AK555) and following the manufacturers instructions. […] Reactions were carried out at 37° C. for 1 hour.
Deacetylation and developer reactions were carried out for 1 hour at 37° C.

[1] = test system: p53-dependent transcription; assay: p53-dependent transcription in T22 RGC-ΔFos-lacZ cells (primary screen, beta-galactosidase/CPRG); format: cell-based; conditions: for Bioactivity (relative to JJ91): p53-dependent transcription in T22 RGC-ΔFos-lacZ cells, JJ91 activity taken as 100%
Description: T22 RGC-ΔFos-lacZ cells expressing beta-galactosidase under the control of a p53-dependent promoter were used and are described by Lu X, Burbidge S A, Griffin S, and Smith H M in Oncogene. […] DMSO should not exceed 1:100 final concentration in medium. Use an untreated control and a positive control treated with 5 ng/ml actinomycin D. Total volume=100 μl • Remove medium from 96 well plate after 18 h and add 50 μl 1× lysis buffer (Promega) per well • Shake for 1 hour at room temperature (can freeze plate at −80° C. until ready to use) • Add 150 μl CPRG reaction mix per well, • Preparation of 15 ml CPRG reaction mix: • 15 ml 0.1M phosphate buffer, pH7.5 • 300 μl CPRG 4 mg/ml (Boehringer-Mannheim) 80 μl (0.1 M MgCl2/0.1 M β-mercaptoethanol) • Incubate 4 hours at 37° C. in a damp chamber. If colour changes from yellow to pink, this indicates p53 activity • Transfer 100 μl from each well to a new 96 well plate. This prevents cell debris from interfering with absorbance reading.
Fold induction of p53-dependent transcription was measured.

[2] = test system: BL2 Burkitt lymphoma cells; assay: Survival of BL2 Burkitt lymphoma cells; format: cell-based; conditions: 1 μM to 10 μM in 70% cyclodextrin, 2 hours exposure daily for six days
Description: At this time, the number of live cells were counted. After this short exposure, cells were washed to remove the compound. This treatment was repeated daily for six days. Experiments were performed in triplicate and standard deviations indicated.

[3] = test system: BL2 Burkitt lymphoma xenograft tumours; assay: BL2 Burkitt lymphoma xenograft tumours in SCID mice; format: in vivo; conditions: 92 mg/kg daily by intraperitoneal injection, measured to day 11
Description: Referring to FIG. 7, BL2 Burkitt lymphoma xenograft tumours in SCID mice were established for 7 days until tumours were palpable. […] Tumour sizes were measured on the day of injection (day 1) and on days 4, 8 and 11 post-injection.

SKNSH-DDp53 cells = assay: FACS analysis of neuroblastoma cells with inactivated p53; format: cell-based; conditions: 10 μM, 48 hours, SKNSH cells with inactive p53
Description: Neuroblastoma cell lines SKNSH-CMVNeo (with functional p53) and SKNSH-DDp53 (inactivated p53) were used and are described by Smart P, Lane E B, Lane D P, Midgley C, Vojtesek B, Lain S. in Oncogene. 1999 Dec. 2; 18(51):7378-86.
• Seed 50,000 cells per well of a 6 well plate in DMEM-10% FCS Day 2 • Add drugs to cells Day 4 • Add bromodeoxyuridine (BrdU) to 30 μM and incubate cells for 20 minutes. • Remove media from cells and transfer to a 13 ml Falcon tube. Rinse cells with PBS and transfer this also. Trypsinise cells and transfer to tube then finally rinse with PBS again. Once all transferred to tube, pellet cells at 1500 rpm for 5 minutes. • Resuspend cells in 1 ml of PBS and add drop wise to 3 ml of ethanol while vortexing. Incubate for a minimum of 1-2 hours at 4° C. (no maximum). […] Keep on ice in the dark until analysed on the FACScan. • Measure DNA content (propidium iodide fluorescence) and DNA synthesis (BrdU incorporation) by FACScan. […]
Cells were analysed by FACS analysis.

[4] = Blood levels after administration to mice (LC-MS/MS); format: in vivo; conditions: 5 mg/kg, intraperitoneal injection
Description: Blood levels were determined at the times shown by LC-MS/MS above and the values shown are the means±SD for three determinations.

p53 = assay: Western blotting of MCF-7 cell extracts; format: cell-based; conditions: MCF-7 cells, 10 μM
Description: • Seed 50,000 cells per well of a 6 well plate in DMEM-10% FCS Day 2 • Add drugs to cells Day 4 • Add bromodeoxyuridine (BrdU) to 30 μM and incubate cells for 20 minutes. • Remove media from cells and transfer to a 13 ml Falcon tube. Rinse cells with PBS and transfer this also. Trypsinise cells and transfer to tube then finally rinse with PBS again. Once all transferred to tube, pellet cells at 1500 rpm for 5 minutes. • Resuspend cells in 1 ml of PBS and add drop wise to 3 ml of ethanol while vortexing. Incubate for a minimum of 1-2 hours at 4° C. (no maximum). Day 5 • Pellet by centrifugation at 2,500 rpm for 5 minutes then pour off supernatant. • Prepare 2 ml fresh pepsin solution per tube at 1 mg/ml in 30 mM HCl (pH 1.5) and prewarm to 37° C. • Add 2 ml prewarmed pepsin solution to each tube and mix for 30 mins at 37° C. • Pellet by centrifugation at 2500 rpm for 5 minutes then pour off supernatant (pellets will be clear) • Add 1 ml 2M HCl for 15-20 mins at room temperature (stock bottle is 11.6 M). • Timing is critical—incubating for long periods results in broad DNA peaks. • Top up with PBS then pellet as before. • Wash again with PBS then once in antibody buffer, pelleting cells each time. • Antibody buffer: PBS, 0.5% BSA, 0.5% Tween-20 • Resuspend pellet into 200 μl of Becton Dickinson anti-BrdU antibody diluted 1:50 in antibody buffer. Incubate for 1 h at room temperature. • Wash in PBS and pellet cells. • Resuspend pellet in 200 μl Sigma FITC antibody (#3008) diluted 1:64 in antibody buffer. Incubate for 30 min at room temperature in the dark to prevent the antibody fading. • Wash in PBS and pellet cells. • Resuspend final pellet in 500 μl PBS containing 25 μg/ml propidium iodide counter stain. Keep on ice in the dark until analysed on the FACScan. • Measure DNA content (propidium iodide fluorescence) and DNA synthesis (BrdU incorporation) by FACScan. 3. […]
Levels of the p53 downstream target p21 are increased Actin was analysed as a loading control.

Chain of SirT1 (Q96EB6 whole entry): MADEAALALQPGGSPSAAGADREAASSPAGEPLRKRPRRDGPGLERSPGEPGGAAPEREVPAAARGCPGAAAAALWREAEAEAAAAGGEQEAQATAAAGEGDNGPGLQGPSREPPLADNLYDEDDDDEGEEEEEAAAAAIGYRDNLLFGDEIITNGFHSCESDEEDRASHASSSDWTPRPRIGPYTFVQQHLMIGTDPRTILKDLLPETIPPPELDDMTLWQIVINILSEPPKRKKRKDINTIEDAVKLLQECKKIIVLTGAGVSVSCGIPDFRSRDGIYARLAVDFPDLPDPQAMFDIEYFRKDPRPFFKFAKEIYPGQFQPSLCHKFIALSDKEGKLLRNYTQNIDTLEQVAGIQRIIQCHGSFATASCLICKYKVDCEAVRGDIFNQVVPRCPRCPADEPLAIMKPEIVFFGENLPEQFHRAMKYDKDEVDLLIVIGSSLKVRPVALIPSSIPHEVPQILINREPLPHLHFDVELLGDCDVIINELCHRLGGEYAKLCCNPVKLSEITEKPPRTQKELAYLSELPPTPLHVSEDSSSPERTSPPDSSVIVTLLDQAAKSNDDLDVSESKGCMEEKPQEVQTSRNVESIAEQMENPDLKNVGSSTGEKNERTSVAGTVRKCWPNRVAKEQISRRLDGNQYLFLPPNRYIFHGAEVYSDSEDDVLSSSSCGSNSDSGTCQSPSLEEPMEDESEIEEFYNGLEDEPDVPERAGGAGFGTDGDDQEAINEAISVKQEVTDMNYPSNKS

SMILES	IC50 (SirT1) [µM]	Bioactivity (relative to JJ91) [1]	further results
CN(C)CCCC(=O)Nc1ccc(NC(=S)NC(=O)c2ccc(C(C)(C)C)cc2)cc1 [Compound 5, N-{4-[3-(4-tert-Butyl-benzoyl)-thioureido]-phenyl}-4-dimethylamino-butyramide hydrochloride]	32 ± 9	–	–
CN(C)CCCCC(=O)Nc1ccc(NC(=O)NC(=O)c2ccc(C(C)(C)C)cc2)cc1 [Compound 24, 5-Dimethylamino-pentanoic acid {4-[3-(4-tert-butyl-benzoyl)-ureido]-phenyl}-amide hydrochloride]	29	–	–
CC(C)(C)c1ccc(C(=O)NC(=S)Nc2ccc(NC(=O)CCCCBr)cc2)cc1 [JH140, 5-bromo-pentanoic acid {4-[3-(4-tert-butyl-benzoyl)-thioureido]-phenyl}-amide]	–	Active (87.5%)	–
CC(=O)Nc1ccc(NC(=S)NC(=O)c2ccc(C(C)(C)C)cc2)cc1 [JJ91, N-{4-[3-(4-tert-Butyl-benzoyl)-thioureido]-phenyl}-acetamide]	–	–	BL2 cell survival [2]: largely reduced; growth of BL2 xenograft tumours [3]: reduces growth of BL2 xenograft tumours; effects on DNA synthesis and cell death (SKNSH-DDp53 cells): not observed; p53 transcription factor function ([1]; T22 RGC-ΔFos-lacZ cells treated 16 hours): activates p53's transcription factor function; concentrations in blood [4]: reach micromolar concentrations in blood; weight or behavioural changes [4]: do not cause significant weight or behavioural changes; half-life ([4]; mouse, ip, blood): ~1.3 h; levels of the p53 downstream target p21 (p53): increased; p53 levels (p53): rapidly increased; levels of p53 phosphoserine-15 (p53; compared with mitomycin C 10 μM): not as high as those observed with the genotoxic gent mitomycin C
CC(C)C(=O)Nc1ccc(NC(=S)NC(=O)c2ccc(C(C)(C)C)cc2)cc1 [Compound 7322366]	–	Active (81.2%)	–
CC(C)(C)c1ccc(C(=O)NC(=S)Nc2ccc(NC(=O)CCCCN3CCOCC3)cc2)cc1 [JH156]	–	Active (75.4%)	–
CC(C)(C)c1ccc(C(=O)NC(=S)Nc2ccc(NC(=O)c3ccccc3)cc2)cc1 [JH151]	–	Active (106.1%)	–
CN(C)CCCCCC(=O)Nc1ccc(NC(=S)NC(=O)c2ccc(C(C)(C)C)cc2)cc1 [Compound 6, 6-Dimethylamino-hexanoic acid {4-[3-(4-tert-butyl-benzoyl)-thioureido]-phenyl}-amide hydrochloride]	16 ± 3	–	–
CN(C)CCOCCOCCOCCOCCOCC(=O)Nc1ccc(NC(=S)NC(=O)c2ccc(C(C)(C)C)cc2)cc1 [Compound 8, N-{4-[3-(4-tert-Butyl-benzoyl)-thioureido]-phenyl}-2-[2-(2-{2-[2-(2-dimethylamino-ethoxy)-ethoxy]-ethoxy}-ethoxy)-ethoxy]-acetamide hydrochloride]	> 60	–	–
CC(C)(C)c1ccc(C(=O)NC(=S)Nc2ccc(N)cc2)cc1 [JH129, 1-(4-Amino-phenyl)-3-(4-tert-butyl-benzoyl)-thiourea]	–	Active (<)	–
CC(C)(C)c1ccc(C(=O)NC(=S)Nc2ccc(NC(=O)CCCCN3CCOCC3)cc2)cc1.Cl [JH156HCl]	–	Active (59.6%)	–
CC(C)(C)OC(=O)Nc1ccc(NC(=S)NC(=O)c2ccc(C(C)(C)C)cc2)cc1 [Compound 21, {4-[3-(4-tert-Butyl-benzoyl)-thioureido]-phenyl}-carbamic acid tert-butyl ester]	–	–	activity in the p53 activation assay (in words) [1]: very good activity
CN(C)CCCCCCCC(=O)Nc1ccc(NC(=S)NC(=O)c2ccc(C(C)(C)C)cc2)cc1 [Compound 7, 8-Dimethylamino-octanoic acid {4-[3-(4-tert-butyl-benzoyl)-thioureido]-phenyl}-amide hydrochloride]	25 ± 10	–	–
